Series [1] deals with microglia. The series is described as follows: CCK-8 microglial viability. The format is cell-based, mouse. From the text: (§1) Primary cortical neurons were isolated from embryonic day 16–18 (E16–E18) C57BL/6 mouse embryos as previously described, and cultured in Neurobasal medium supplemented with B27 and GlutaMAX (Gibco).Primary microglial cells were isolated from the cortices of neonatal (day 1) C57BL/6J mice. After disinfection with 75 % ethanol, the skin and skull were removed, and the brains were placed in ice-cold HBSS. The meninges were peeled off, the cortex was collected, and the hippocampus was discarded. Tissues were digested with 0.25 % trypsin at 37 °C for 12 min, centrifuged at 1200 rpm for 5 min, and resuspended in complete medium. The suspension was transferred to a T75 flask with 15 mL of complete medium. After 14 days, microglial cells were harvested by shaking the flask at 270–280 rpm for 30 min, and the supernatant was collected. To induce phenotyping, microglial cells were treated with LPS (100 ng/mL) and IFN-γ (20 ng/mL) for 48 h to induce the M1 phenotype, or IL-4 (20 ng/mL) for 48 h to induce the M2 phenotype. […]
Microglia were exposed to 1, 10 100 μM concentrations of TCC or TC and PBS respectively for 24 h, and cell viability was measured. […] Cell viability was assessed using the Cell Counting Kit-8 (C0038, Beyotime) according to the manufacturer’s protocol. Absorbance at 450 nm was measured to determine cell viability.

For series [2] the following is noted: in the brain following ICH, increased BBB permeability.
Series [3] deals with microglia. The series is described as follows: IL-6 release from CIRP-stimulated microglia, ELISA (TCC vs TC). Format: cell-based, mouse. Particulars: peptides 10 μM pre-treated 0.5 h, then rmCIRP 1 μg/mL 24 h, n = 3.
Protocol: To validate the effects of TCC and TC in vitro, microglial cells were pre-treated with the peptides (10 μM) for 0.5 h, followed by stimulation with recombinant mouse CIRP (rmCIRP, 1 μg/mL) for 24 h to establish an inflammation model.
ELISA was used to quantify CIRP, MD2, IL-6, and TNF-α concentrations in blood and cerebrospinal fluid samples. Samples were processed and stored under standardized conditions to preserve protein integrity. Each target protein was measured using commercial ELISA kits, following the manufacturer’s instructions: Mouse CIRBP ELISA Kit (CSB-EL005440MO, CUSABIO), Mouse TNF-α ELISA Kit (EK282, Lianke Bio), Mouse IL-6 ELISA Kit (CSB-E04639m, CUSABIO), and Rat TNF-α ELISA Kit (EK382, Lianke Bio).
After disinfection with 75 % ethanol, the skin and skull were removed, and the brains were placed in ice-cold HBSS. The meninges were peeled off, the cortex was collected, and the hippocampus was discarded. Tissues were digested with 0.25 % trypsin at 37 °C for 12 min, centrifuged at 1200 rpm for 5 min, and resuspended in complete medium. The suspension was transferred to a T75 flask with 15 mL of complete medium. After 14 days, microglial cells were harvested by shaking the flask at 270–280 rpm for 30 min, and the supernatant was collected. […] CIRP (1 μg/mL for 24 h) was added to the microglia, which were divided into PBS, CIRP, and CIRP + TCC groups. […]
The target of series [4] is T1, recombinant human IL-6 receptor alpha (IL-6Rα) (human, UniProt P08887 20-365).
T1 construct: Interleukin-6 receptor subunit alpha, human; UniProtKB P08887 is printed for the docking; also called rhIL-6Rα; rhIL-6R; source: recombinant
T1 sequence (looked up): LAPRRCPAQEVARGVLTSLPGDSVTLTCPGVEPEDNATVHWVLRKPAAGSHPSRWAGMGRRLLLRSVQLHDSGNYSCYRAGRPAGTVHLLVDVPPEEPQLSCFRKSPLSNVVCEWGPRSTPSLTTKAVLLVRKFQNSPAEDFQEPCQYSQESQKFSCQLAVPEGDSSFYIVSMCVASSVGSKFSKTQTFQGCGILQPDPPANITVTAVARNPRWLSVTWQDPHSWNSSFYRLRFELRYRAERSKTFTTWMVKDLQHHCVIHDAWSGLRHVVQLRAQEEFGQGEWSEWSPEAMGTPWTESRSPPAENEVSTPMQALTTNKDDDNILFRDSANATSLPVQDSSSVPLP
The series is described as follows: SPR; human IL-6Rα immobilised on a CM5 chip; human CIRBP or TCC as analyte. Conditions: both partners purified.

For series [5], the system named is microglia. The series is described as follows: Microglial phagocytosis of CFSE-labeled RBCs. Format: cell-based, mouse. Conditions: rmCIRP 24 h, then CFSE-labeled erythrocytes.
Source text: as §1, with “collected.” for “collected. To induce phenotyping, microglial cells were treated with LPS (100 ng/mL) and IFN-γ (20 ng/mL) for 48 h to induce the M1 phenotype, or IL-4 (20 ng/mL) for 48 h to induce the M2 phenotype.”
The functional characteristics of microglial cells encompass not only the release of inflammatory cytokines but also their phagocytic activity. […] RBCs were labeled with either 0.5 μM or 5 μM CFSE, and immunofluorescence analysis determined that 5 μM CFSE was the optimal concentration for labeling (Fig. 7G). […]
RBCs were isolated via density gradient centrifugation and labeled with CFSE before being stereotactically injected into the right striatum. […] Cell viability was assessed using a Fixable Viability Dye, and flow cytometric analysis was subsequently performed. […]

Like-named read-outs stand apart in the source and are kept apart here. No end group written: not given here.

This note sets out measurements from article PMC13227277, “Targeting CIRP and IL-6R-mediated microglial inflammation to improve outcomes in intracerebral hemorrhage” (Journal of Advanced Research, 2025).

For “YGRKKRRQRRRGRGFSRGGGDRGYGGKFERQKILDQRFFE [TCC]”, the microglial viability entry in the series with microglia [1] (10 μM, 24 h, CCK-8, n = 3) is “did not affect microglial viability”. Also, the “ability to cross the BBB” value in series [2] was “effectively traverse the BBB”. With YGRKKRRQRRRRFESRSGGYGGSRD [TC], in the series on microglia [1], the microglial viability result is recorded as “did not affect microglial viability”. The “IL-6 release in culture supernatants” value in the series with microglia [3] is “reduced IL-6 release”.

B1: Tat-CIRP-CMA peptide (peptide)
peptide: YGRKKRRQRRRGRGFSRGGGDRGYGGKFERQKILDQRFFE
notes: also called TCC; source: synthetic peptide (Heifei KS-V Peptide Biotechnology, China)
For B1, the Kd in series [4] was determined as 4.12 nM.

B2: rmCIRP: recombinant mouse CIRP (rmCIRP, 1 μg/mL) (protein, UniProt P60824 1-172, looked up)
Cold-inducible RNA-binding …: MASDEGKLFVGGLSFDTNEQALEQVFSKYGQISEVVVVKDRETQRSRGFGFVTFENIDDAKDAMMAMNGKSVDGRQIRVDQAGKSSDNRSRGYRGGSAGGRGFFRGGRSRGRGFSRGGGDRGYGGGRFESRSGGYGGSRDYYASRSQGGSYGYRSSGGSYRDSYDSYATHNE
As for B2, the “phagocytosis of RBCs, Cirbp^−/− vs WT microglia” value in the series with microglia [5] is recorded as “greater capacity to phagocytize CFSE-labeled erythrocytes compared to WT microglia”.

Broadly, the Kd is the concentration at which binding is half-saturated.
